Paper PMC4690813 (Journal of medicinal chemistry, 2015)

Assays:
recombinant human DAGLα = biological target: T1, recombinant human DAGLα (Homo sapiens, UniProt Q9Y4D2); experiment: colorimetric DAGLα activity assay; type: biochemical; settings: for LipE: LipE = pIC50 - cLogP; for fold drop in potency/activity: 2 compared to 1, 109 compared to 1, 122 compared to oleoyl analogue 121
T1 sequence (Q9Y4D2 1-1042): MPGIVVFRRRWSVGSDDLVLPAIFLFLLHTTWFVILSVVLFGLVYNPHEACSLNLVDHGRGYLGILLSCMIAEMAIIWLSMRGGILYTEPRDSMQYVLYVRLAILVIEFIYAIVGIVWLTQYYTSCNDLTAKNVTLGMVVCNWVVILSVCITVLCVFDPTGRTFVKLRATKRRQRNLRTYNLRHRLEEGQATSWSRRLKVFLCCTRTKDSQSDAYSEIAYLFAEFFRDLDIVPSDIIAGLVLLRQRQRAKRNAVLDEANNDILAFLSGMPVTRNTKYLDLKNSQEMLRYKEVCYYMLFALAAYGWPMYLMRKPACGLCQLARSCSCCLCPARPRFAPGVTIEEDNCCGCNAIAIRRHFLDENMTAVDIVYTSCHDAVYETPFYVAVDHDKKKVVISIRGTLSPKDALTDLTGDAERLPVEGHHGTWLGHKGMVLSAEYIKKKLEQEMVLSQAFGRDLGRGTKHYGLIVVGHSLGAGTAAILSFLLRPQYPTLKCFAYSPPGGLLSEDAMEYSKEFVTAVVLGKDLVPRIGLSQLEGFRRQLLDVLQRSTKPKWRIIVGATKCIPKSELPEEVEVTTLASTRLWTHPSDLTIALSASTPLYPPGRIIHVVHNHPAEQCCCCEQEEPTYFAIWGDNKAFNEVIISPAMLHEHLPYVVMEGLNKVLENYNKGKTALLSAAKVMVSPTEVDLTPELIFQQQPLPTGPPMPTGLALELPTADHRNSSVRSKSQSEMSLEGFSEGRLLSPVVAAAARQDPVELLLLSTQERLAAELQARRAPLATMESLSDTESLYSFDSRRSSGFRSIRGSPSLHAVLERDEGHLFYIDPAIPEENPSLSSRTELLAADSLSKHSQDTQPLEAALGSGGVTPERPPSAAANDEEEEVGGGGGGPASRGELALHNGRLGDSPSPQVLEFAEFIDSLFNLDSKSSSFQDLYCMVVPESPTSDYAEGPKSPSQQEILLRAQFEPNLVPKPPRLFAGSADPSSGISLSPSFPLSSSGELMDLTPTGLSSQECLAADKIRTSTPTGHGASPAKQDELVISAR

[1] = system: panel of serine hydrolases; settings: gel-based competitive ABPP; FAAH only detected off-target; ref [12], [13]; cited from earlier work
FAAH = FAAH activity reported in the literature; type: biochemical; settings: DAGLα pIC50 versus previously reported FAAH pKi

| Compound | LipE (recombinant human DAGLα) | other results |
| --- | --- | --- |
| O=C(CCCc1ccccc1)c1nc2ncccc2o1 [Compound 107, 1-(Oxazolo[4,5-b]pyridin-2-yl)-4-phenylbutan-1-one] | 2.64 | – |
| O=C(CCCCCCc1ccccc1)c1ncc(-c2ccccn2)o1 [OL-135, reference compound] | – | DAGLα inhibitor activity (in words) (recombinant human DAGLα): not active |
| O=C(CCc1ccccc1)c1nc2ncccc2o1 [Compound 106, 1-(Oxazolo[4,5-b]pyridin-2-yl)-3-phenylpropan-1-one] | 2.11 | – |
| O=C(CCCCCCCCc1ccccc1)c1nc2ncccc2o1 [Compound 111] | 2.78 | – |
| O=C(CCCCCc1ccccc1)c1nc2ncccc2o1 [Compound 1, 1-(Oxazolo[4,5-b]pyridin-2-yl)-6-phenylhexan-1-one] | 3.35 | selectivity over a panel of serine hydrolases [1]: highly selective |
| O=C(CCCCCCc1ccccc1)c1nc(C(=O)C(F)(F)F)co1 [Compound 45] | – | selectivity over FAAH (FAAH): selective over FAAH |
| O=C(CCCCCCCc1ccccc1)c1nc2ncccc2o1 [Compound 110, 1-(Oxazolo[4,5-b]pyridin-2-yl)-8-phenyloctan-1-one] | 2.20 | – |
| O=C(CCCCCCc1ccccc1)c1nc2ncccc2o1 [Compound 109, 1-(Oxazolo[4,5-b]pyridin-2-yl)-7-phenylheptan-1-one] | 1.68 | fold drop in potency/activity (recombinant human DAGLα): > 10 fold |
| CCCCC/C=C\C/C=C\C/C=C\C/C=C\CCCC(=O)c1nc2ncccc2o1 [Compound 122] | – | fold drop in potency/activity (recombinant human DAGLα): ~100 fold |
| CCCCCCCC/C=C\CCCCCCCC(=O)c1nc2ccccc2[nH]1 [Compound 123] | – | selectivity over FAAH (FAAH): selective over FAAH |
| O=C(CCCCc1ccccc1)c1nc2ncccc2o1 [Compound 108, 1-(Oxazolo[4,5-b]pyridin-2-yl)-5-phenylpentan-1-one] | 3.15 | – |
